The values that follow come from patent publication US9580749B2, “Dyes and labeled molecules” (Biotium, Inc., priority 2005, dated 2017).

Entries after “also recorded” stand apart in the source; their conditions may differ. Bounds are passed on as bounds.

Data set [1] relates to nucleic acid. The note with it: cited from earlier work.
The test system of data set [2] is salmon sperm DNA. Nature of the data set: Absorbance and fluorescence emission spectra of dyes without or with DNA in PBS buffer. Type of data set: physicochemical. The note with it: for red shift of absorbance upon binding to DNA, relative to free dye: 2 mg/ml salmon sperm DNA; for red shift of absorbance upon binding to DNA, relative to free dye / spectra of the free dyes: intramolecular H-dimer (hairpin) formation: PBS buffer; for spectra of the free dyes: intramolecular H-dimer (hairpin) formation: FIG. 5. How it is done: The spectra were normalized to 1 in the absorbance plot. […] The heterodimeric dye AORO-7 comprises a monomeric AO dye and a fluorescent non-nucleic acid rosamine RO dye. Two emission peaks, contributed by AO and RO moieties, respectively, were recorded.

Data set [3] deals with amplicons HMBS, RPL4, SDHA, TBP. Nature of the data set: Melting curves of amplicons after qPCR. Type of data set: biochemical. The note with it: for melting peaks of the HMBS amplification reaction (primer dimer): HMBS amplicon, FIG. 15. How it is done: SYBR Green I was reported to be advantageous in that the melting temperature of an amplicon could be detected after qPCR amplification. The melting temperature provides valuable information about the amplicon, as it is a function of the size and GC content of the amplicon. No melting temperatures could be collected from TaqMan reactions. Melting curves from four amplicons, i.e., HMBS (SEQ ID NO: 4), RPL4 (SEQ ID NO: 5), SDHA (SEQ ID NO: 6), and TBP (SEQ ID NO: 7) were measured from reactions amplified in the presence of AOAO-12 (Panel A) or SYBR Green (Panel B) and are presented in FIG. 15.
It has been reported that qPCR reactions with SYBR Green I tend to form primer-dimers, and the tendency is closely related to the concentration of SYBR Green I. It has been postulated that SYBR Green I binds to DNA so tightly that it interferes with the performance of Taq DNA polymerase. As AOAO-12 has less affinity to DNA, the interference should be alleviated.

A short description of data set [4]: Thermo-stability of dye at 96° C. in PCR reaction buffers with PCR products. Type of data set: physicochemical. The note with it: 96° C. for 40 minutes. As for the experimental part: Specifically, AOAO-12 was kept in PCR reaction buffers with PCR products. The mixture was heated to 96° C. for 40 minutes. During the heating course, the mixture was brought down to 60° C. briefly to monitor the fluorescence.

In data set [5] the test system is salmon sperm DNA or a mixture of single-stranded 20mer oligonucleotide. The data set can be described thus: Fluorescence of AOAO-12 in response to different amounts of DNA (microtiter plate reader). The format is binding. The note with it: 0.1 μM dye in PBS. How it is done:
It can be seen that fluorescence linearly responded to DNA up to 2.0 μg/ml (inset). At higher concentrations of DNA, the response became non-linear.

In data set [6] the test system is PCR reaction. The data set can be described thus: Real-time PCR (qPCR) amplification of ATPB fragment in pTOPO plasmid with a fluorescent monitoring dye. The format is biochemical. The note with it: for inhibition of PCR (Ct delay) by the dye: increasing dye concentration. A general note: Real-time PCR tracks product formation cycle by cycle.
Procedure: The thermal regimen was set at 95° C. for 1 minute followed by 50 cycles of 15-second duration at 95° C., of 15-second duration at 55° C., and of 15-second duration at 72° C. Fluorescence was measured at the 55° C. stage.
The conditions of data set [7]: stored in Tris buffer at 4° C.; cited from earlier work.

As for `CN(C)c1ccc2cc3ccc(N(C)C)cc3nc2c1` [AO, acridine orange], the “absorption wavelength λabs” value in data set [1] (DNA bound) is on record as 500 nm. Also, the “affinity for nucleic acid” value in data set [1] is given as “very low”. Besides, in data set [1] (in M-1·cm-1 (unit assumed)), the extinction coefficient is > 50,000.

As to `CN(C)c1ccc2cc3ccc(N(C)C)cc3[n+](CCCCCC(=O)NCCCCCNC(=O)CCCCC[n+]3c4cc(N(C)C)ccc4cc4ccc(N(C)C)cc43)c2c1` [AOAO-7], the “red shift of absorbance upon binding to DNA, relative to free dye” value in data set [2] came out at 5 nm. Besides, the “new shorter wavelength peak in absorbance” value in data set [2] (free dye in PBS buffer, without DNA) is recorded as 471 nm.

Turning to `CN(C)c1ccc2cc3ccc(N(C)C)cc3[n+](CCCCCC(=O)NCCOCCNC(=O)CCCCC[n+]3c4cc(N(C)C)ccc4cc4ccc(N(C)C)cc43)c2c1` [AOAO-12], the “melting peaks of the HMBS amplification reaction (primer dimer)” value in data set [3] is “only a single, clean, and specific peak”. Besides, the “melting temperatures of amplicons relative to SYBR Green I” value in data set [3] (four amplicons, lower than SYBR Green I) is listed as “about 2 degrees”. Further, in data set [3] (relative to SYBR Green I), the DNA binding affinity entry is recorded as “binds DNA with high affinity but less tightly than SYBR Green I” and the “height of melting peaks” value is listed as “markedly higher”. Moreover, the “stability (fluorescence monitored at 60° C.)” value in data set [4] was “stable at 96 °C for 40 minutes substantially without loss of fluorescence”. In addition, in data set [5], the “DNA concentration up to which fluorescence responded linearly” value was “up to 2.0 μg/ml” and the “fluorescence bound to double stranded versus single stranded DNA” value is “fluoresces more intensely when bound to double stranded DNA than when bound to single stranded DNA”. Moreover, the “final fluorescence signal strength relative to SYBR Green I” value in data set [6] (qPCR, dye at higher usable concentration) is recorded as “several folds higher; also recorded: several times higher”. Moreover, in data set [6] (qPCR), the “inhibition of PCR (Ct delay) by the dye” value is “without exhibiting inhibition; also recorded: little or no inhibition”.

Take `CC1=CC(C)(C)Nc2cc3c(cc21)C(c1ccc(C(=O)NCCCCCC(=O)NCCCCCNC(=O)CCCCC[n+]2c4cc(N(C)C)ccc4cc4ccc(N(C)C)cc42)cc1)=c1cc2c(cc1O3)=NC(C)(C)C=C2C` [AORO-7]: in data set [2], the “absorption peak of rosamine dye component” value is 600 nm and the “emission peak of rosamine dye component” value is recorded as about 620 nm. Also, in data set [2] (DNA), the “absorption peak of AO component” value worked out at 503 nm and the “emission peak of AO component” value turned out to be 523 nm.

In the case of `CN(C)CCC[n+]1c2cc(N(C)C)ccc2cc2ccc(N(C)C)cc21.[I-]` [DMAO], in data set [2], the “red shift of absorbance upon binding to DNA, relative to free dye” value was found to be 10 nm.

On to `CCCN(CCCN(C)C)c1cc(/C=C2/Sc3ccccc3N2C)c2ccccc2[n+]1-c1ccccc1` [SYBR Green I, reference compound], for which the “melting peaks of the HMBS amplification reaction (primer dimer)” value in data set [3] is recorded as “has an extra primer dimer peak”. Further, the “chemical stability on storage” value in data set [7] is on record as “decomposes significantly over the course of a few days”. In addition, in data set [6] (qPCR), the “inhibition of PCR (Ct delay) by the dye” value is listed as “exhibited inhibition to PCR reactions; also recorded: significantly inhibits PCR at higher dye concentration”.

In the case of `CN1/C(=C/c2cc[n+](CCC[N+](C)(C)CCC[N+](C)(C)CCC[n+]3ccc(/C=C4\Sc5ccccc5N4C)c4ccccc43)c3ccccc23)Sc2ccccc21.[I-].[I-].[I-].[I-]` [TOTO-1, reference compound], the “spectra of the free dyes: intramolecular H-dimer (hairpin) formation” value in data set [2] (without DNA) was “has less spectral shift”. In data set [6] (qPCR), the “inhibition of PCR (Ct delay) by the dye” value is listed as “completely inhibited the PCR reaction”.

Regarding `C[n+]1c(C=C2C=CN(CCCCCC(=O)NCCNC(=O)CCCCCN3C=CC(=Cc4sc5ccccc5[n+]4C)c4ccccc43)c3ccccc32)sc2ccccc21` [TOTO-3], the “spectra of the free dyes: intramolecular H-dimer (hairpin) formation” value in data set [2] (without DNA) was “forms an intramolecular H-dimer, or a hairpin structure”.

Take `C[n+]1c(C=C2C=CN(CCCCCC(=O)CNCCOCCNC(=O)CCCCCN3C=CC(=Cc4sc5ccccc5[n+]4C)c4ccccc43)c3ccccc32)sc2ccccc21` [TOTO-12]: the “Ct and fluorescence intensity in qPCR relative to TO” value in data set [6] (FIG. 11) was “improved Ct and improved fluorescence intensity relative to TO”.

`CN(C)c1ccc2cc3ccc(=[N+](C)C)cc-3oc2c1.[Cl-]` [pyronin Y]: in data set [1], the absorption maximum was 548 nm and the emission maximum is listed as 565 nm.
